Assay results published in patent US8435966B2, “Associations of xanthogenates and cyclodextrins, and their use” (Biosphings AG, priority 2006, dated 2013).
Read-outs that look alike come from different tables or passages of the source.

Tests used:
[1] = Stabilization of various xanthates by methyl-beta-cyclodextrin at 60° C. (decomposition in water, detected by pH value and calibration curves); settings: 24 h at 60° C.; for % Decomposition − Cyclodextrin / % Decomposition + Cyclodextrin: 10 mg/ml xanthate in water; for % Decomposition − Cyclodextrin: absence of cyclodextrin; for % Decomposition + Cyclodextrin: presence of 100 mg/ml methyl-beta-cyclodextrin; for Stabilization factor: decomposition without / with methyl-beta-cyclodextrin
Method: Solutions each containing 10 mg/ml methylxanthate, propylxanthate, butylxanthate, heptyixanthate, hexylxanthate, decylxanthate, isopropylxanthate, or tricyclo[5,2,1,0^2,6]-decylxanthate (D 609) in water were incubated for 24 h at 60° C. either in the presence or absence of 100 mg/ml methyl-beta-cyclodextrin. Xanthates decompose in aqueous medium into the corresponding alcohol, CS2, and, depending on the type of xanthate salt, KOH or NaOH. The decomposition of xanthates can therefore be detected quantitatively by measuring the pH value and using calibration curves.

female Balb C mice = assay: Toxicity after intravenous application (survival 48 h after injection into the lateral tail vein); format: in vivo; settings: for Animals receiving injections/surviving animals: 48 h
Method: The exo/exo isomer of D 609 or hexylxanthate were dissolved in 0.9% NaCl or 0.9% NaCl/30% hydroxy-beta-cyclodextrin at a concentration of 30 mg/ml. Subsequently, dilutions were prepared using 0.9% NaCl solution to obtain concentrations of 30, 20, 10, and 5 mg/ml D 609 or hexylxanthate. Three female Balb C mice each received injections of 0.2 ml/20 g body weight of each solutions into the lateral tail vein. The animals were monitored for 48 h after injection and survival was recorded.

erythrocytes = assay: Hemolytic effect of xanthates (OD 450 of supernatants of diluted blood); settings: for 50% hemolysis (IC50): 30 minutes at room temperature
Method: Venous blood was taken from female Balb C mice by retroorbital puncture and heparin was added to the blood. The blood was then diluted 1:75 using phosphate-buffered saline. Methyl-, butyl, and hexylxanthate as well as exo/exo D 609 were dissolved in phosphate-buffered saline (stock solution 10 mg/ml). 100 μl diluted blood and 100 μl diluted xanthate solution each were placed in 96-well microtiter plates to obtain final concentrations of 2, 1, 0.5, 0.25, 0.125, 0.063, and 0.031 mg/ml of xanthate. Saline served as the control. After incubation at room temperature for 30 minutes, a centrifugation at 5,000 g for 5 min was performed and the supernatants were removed. The absorption of the supernatants at 450 nm (OD 450) was measured using an ELISA-Reader. Dose-response curves (FIGS. 2 and 3) were used to determine the concentrations at which 50% of the maximal absorption was reached and at which, therefore, 50% of the erythrocytes were lysed (IC50).

HSV-1, strain Angelotti = assay: Antiviral efficacy, plaque number in Calu-6 cells infected with HSV-1; format: cell-based; settings: addition of cyclodextrin 1:1 or 1:2 to D609, Calu-6 cells, 72 h
Method: Human lung carcinoma cells (Calu-6) in D-MEM medium (supplemented with 10% fetal calf serum) were seeded in 24-well plates (Greiner) (3×10^6 cells/plate each). After incubation for 24 h at 37° C. in a 5% CO2 atmosphere, the medium was decanted and 0.1 ml viral suspension (HSV-1, strain Angelotti, 200 plaque-forming units/ml) were added. After incubation at 37° C. for one hour, fresh medium (DMEM, 10% serum, 0.85 g NaHCO3/I) containing D609 (exo/exo isomer) or a mixture of D609 and beta-hydroxypropyl-cyclodextrin (b-HP) (Sigma, Munich, No 33, 260-7) was added.
The following concentrations were set-up:
After 72 h, the medium was decanted and the plates were fixed with 3% formalin and stained with 0.5% crystal violet. After the plates were dried, the number of plaques per well was determined and the means±standard deviation were calculated. The results (dose-response curves) are plotted in FIG. 4. […] Accordingly, the addition of beta-hydroxypropyl-cyclodextrin has no influence on the antiviral activity of D609.

[2] = Stabilization effect of different cyclodextrins on D 609 at 60° C. (RP-18 thin layer plate); format: physicochemical; settings: exo/exo D 609 with cyclodextrin, eight days at 60° C., TLC spots under UV (FIG. 1)
Method: Exo/exo D 609 was dissolved in solutions (100 mg/ml) containing various cyclodextrins (10 mg/ml). The samples were incubated for eight days at 60° C. 10 μl of each sample were diluted with 90 μl of water and 100 μl ethylacetate/3 mg/ml p-bromoacetophenone were added. After shaking for 30 minutes, 5 μl of the ethylacetate phase each were applied to a RP-18 thin layer plate and the plate was placed for 15 minutes in a TLC chamber containing acetonitrile as mobile phase. A freshly prepared solution of 9 mg/ml D 609 plus 1 mg/ml of a D 609 solution that had been incubated at 95° C. for 48 h (decomposition control) was used as calibration sample. The D 609-specific spots were visualized under UV light and photographed.

[3] = Stabilization of exo/exo D 609 by cyclodextrin at room temperature (decomposition in water, pH after 45 days); format: physicochemical; settings: for decomposition / pH value of the solution: after 45 days
Method: The xanthate, D 609, decomposes in aqueous solutions to form the tricyclodecanol, CS2, and KOH. […] The pH value of the individual solutions was determined after 45 days using PANPEHA strips (Schleicher & Schüll). […] The pH value of the solution containing cyclodextrin was measured to be 7.0. This corresponds to <0.1% decomposition. Accordingly, the rate of decomposition is at least 1000-fold lower in the presence of cyclodextrin.

[4] = system: DNA and RNA virus species; tumor cells; settings: from literature and U.S. Pat. No. 4,602,037; cited from earlier work
[5] = system: models of Alzheimer's disease; settings: from literature; cited from earlier work
multiple sclerosis model = settings: from literature; cited from earlier work
animal model of stroke = settings: from literature; cited from earlier work
lung edemas = settings: from literature; cited from earlier work
[6] = in the presence of cyclodextrin
[7] = xanthate alone (absence of cyclodextrin)
[8] = 10 mg/ml in water with 100 mg/ml cyclodextrin

For `CC(C)OC(=S)S` [Isopropyl, isopropylxanthate], the “% Decomposition − Cyclodextrin” value [1] was 20%, the “% Decomposition + Cyclodextrin” value [1] was 1% and the Stabilization factor [1] was 20.

For `CCCCCCOC(=S)S` [Hexylxanthate, hexylxanthate], the “% Decomposition − Cyclodextrin” value [1] was 20%, the “% Decomposition + Cyclodextrin” value [1] was 1% and the “Animals receiving injections/surviving animals” value (female Balb C mice; Dose 50 mg/kg) was 3/3. The “Animals receiving injections/surviving animals” value (female Balb C mice; Dose 100 mg/kg) was 3/2, the “Animals receiving injections/surviving animals” value (female Balb C mice; Dose 200 mg/kg) was 3/0 and the “Animals receiving injections/surviving animals” value (female Balb C mice; Dose 300 mg/kg) was 3/0. For the same molecule, the LD50 (female Balb C mice; [6]) was 130 mg/kg, the LD50 (female Balb C mice; [7]) was 130 mg/kg and the “concentration of complete hemolysis” value (erythrocytes) was 500 µg/mL. For the same molecule, the “hemolytic effect / dose-response curves in the presence versus absence of cyclodextrin” value (erythrocytes) was “reduced strongly”, the “increase of the IC50 by a factor” value (erythrocytes) was 2.5 and the “50% hemolysis (IC50)” value (erythrocytes; absence of cyclodextrin) was 300 µg/mL. For the same molecule, the “50% hemolysis (IC50)” value (erythrocytes; presence of cyclodextrin) was 750 µg/mL.

In the case of beta-hydroxypropyl-cyclodextrin, the “influence on the antiviral activity of D609” value (HSV-1, strain Angelotti) is reported as “no influence”.

In the case of `CCCOC(=S)S` [Propyl, propylxanthate], the “% Decomposition − Cyclodextrin” value [1] is reported as 20%, the “% Decomposition + Cyclodextrin” value [1] is reported as 2% and the Stabilization factor [1] is reported as 10.

With `CCCCCCCCCCOC(=S)S` [Decyl, decylxanthate] the “% Decomposition − Cyclodextrin” value [1] was 10% and the “% Decomposition + Cyclodextrin” value [1] was 1%.

With `COC(=S)S` [Methyl, methylxanthate] the “% Decomposition − Cyclodextrin” value [1] was 50%, the “% Decomposition + Cyclodextrin” value [1] was 1% and the Stabilization factor [1] was 50. For the same molecule, the “hemolytic effect / dose-response curves in the presence versus absence of cyclodextrin” value (erythrocytes; FIGS. 2 and 3) was “no significant differences”, the “concentration of complete hemolysis” value (erythrocytes; absence of cyclodextrin) was 1000 µg/mL and the “50% hemolysis (IC50)” value (erythrocytes; absence of cyclodextrin) was 600 µg/mL. For the same molecule, the “concentration of complete hemolysis” value (erythrocytes; presence of cyclodextrin) was 1000 µg/mL and the “50% hemolysis (IC50)” value (erythrocytes; presence of cyclodextrin) was 650 µg/mL.

In the case of `CCCCOC(=S)S` [Butyl, butylxanthate], the “% Decomposition − Cyclodextrin” value [1] is reported as 20%, the “% Decomposition + Cyclodextrin” value [1] is reported as 1% and the Stabilization factor [1] is reported as 20. For the same molecule, the “hemolytic effect / dose-response curves in the presence versus absence of cyclodextrin” value (erythrocytes; FIGS. 2 and 3) was “no significant differences”, the “concentration of complete hemolysis” value (erythrocytes; absence of cyclodextrin) was 1000 µg/mL and the “50% hemolysis (IC50)” value (erythrocytes; absence of cyclodextrin) was 800 µg/mL. For the same molecule, the “concentration of complete hemolysis” value (erythrocytes; presence of cyclodextrin) was 1000 µg/mL and the “50% hemolysis (IC50)” value (erythrocytes; presence of cyclodextrin) was 650 µg/mL.

With methyl-beta-cyclodextrin the “protective effect from decomposition of D 609” value [2] was “works the best by far”.

In the case of `S=C([S-])OC1CC2CC1C1CCCC21.[K+]` (stereo not drawn) [D 609], the “% Decomposition − Cyclodextrin” value [1] is reported as 20%, the “% Decomposition + Cyclodextrin” value [1] is reported as 1% and the decomposition ([3]; 10 mg/ml in pure water) is reported as “complete decomposition”. For the same molecule, the “pH value of the solution” value ([3]; 10 mg/ml in pure water) was 12.5, the decomposition [3, 8] was less than 0.1% and the “pH value of the solution” value [3, 8] was 7.0. The “rate of decomposition lower in the presence of cyclodextrin” value ([3]; 45 days, with versus without cyclodextrin) was “at least 1000 fold”, the “Animals receiving injections/surviving animals” value (female Balb C mice; Dose 50 mg/kg) was 3/3 and the “Animals receiving injections/surviving animals” value (female Balb C mice; Dose 100 mg/kg) was 3/0. For the same molecule, the “Animals receiving injections/surviving animals” value (female Balb C mice; Dose 200 mg/kg) was 3/0, the “Animals receiving injections/surviving animals” value (female Balb C mice; Dose 300 mg/kg) was 3/0 and the “number of surviving animals, effect of cyclodextrin” value (female Balb C mice; at the higher D 609-doses) was “clearly increased”. The LD50 (female Balb C mice; [6]) was 250 mg/kg, the LD50 (female Balb C mice; [7]) was 75 mg/kg and the “concentration of complete hemolysis” value (erythrocytes) was 500 µg/mL. The “hemolytic effect / dose-response curves in the presence versus absence of cyclodextrin” value (erythrocytes) was “reduced strongly”, the “increase of the IC50 by a factor” value (erythrocytes) was 6.4 and the “50% hemolysis (IC50)” value (erythrocytes; absence of cyclodextrin) was 125 µg/mL. For the same molecule, the “50% hemolysis (IC50)” value (erythrocytes; presence of cyclodextrin) was 800 µg/mL, the known activity [4] was “antiviral and antitumoral activity” and the “effect in models of Alzheimer's disease” value [5] was “protective properties”. For the same molecule, the “effect in a multiple sclerosis model” value (multiple sclerosis model) was “protective effect”, the “effect in an animal model of stroke” value (animal model of stroke) was “protective effect” and the “effect on lung edemas” value (lung edemas) was “protection from lung edemas”.

In the case of `CCOC(=S)S` [Ethyl], the “% Decomposition − Cyclodextrin” value [1] is reported as 10%, the “% Decomposition + Cyclodextrin” value [1] is reported as 1% and the Stabilization factor [1] is reported as 10.
